Reference: publication PMC5719402, “Protein-Structure Assisted Optimization of 4,5-Dihydroxypyrimidine-6-Carboxamide Inhibitors of Influenza Virus Endonuclease” (Scientific Reports, 2017)

The compounds below were run against wild type PAN protein (PA endonuclease domain) (Influenza A virus, UniProt C3W5S0) (assay: biochemical). Conditions: FP Ki.
Format: binding

Compared with COCCNC(=O)c1nc([C@@H]2CCCN2C(=O)COc2ccccc2)[nH]c(=O)c1O [Compound 6e], O=C(NCCOc1ccccc1)c1nc([C@@H]2CCCN2C(=O)COc2ccccc2F)[nH]c(=O)c1O [Compound 9h] is 3.6-fold lower in Ki: 1600 nM for the first, 440 ± 30 nM for the second. The second binds more tightly here.

Compared with O=C(NCCc1ccccc1)c1nc([C@@H]2CCCN2C(=O)c2cc(Cl)ncc2Cl)[nH]c(=O)c1O [Compound 7d], O=C(NCCc1ccccc1)c1nc([C@@H]2CCCN2C(=O)c2ccnc(Cl)c2)[nH]c(=O)c1O [Compound 7e] is 180-fold higher in Ki: 100 ± 20 nM for the first, 17500 ± 1100 nM for the second.

O=C(NCc1cccc(C(F)(F)F)c1)c1nc([C@@H]2CCCN2C(=O)c2c(Cl)cncc2Cl)[nH]c(=O)c1O [Compound 8a] and O=C(NCCc1cccc(C(F)(F)F)c1)c1nc([C@@H]2CCCN2C(=O)c2c(Cl)cncc2Cl)[nH]c(=O)c1O [Compound 8c] are within error of each other in Ki: 160 ± 40 nM for the first, 100 ± 30 nM for the second.

First: Cn1c([C@@H]2CCCN2C(=O)c2c(Cl)cncc2Cl)nc(C(=O)NCCc2ccccc2)c(O)c1=O [Compound 8b]
Second: Cn1c([C@@H]2CCCN2C(=O)c2c(Cl)cncc2Cl)nc(C(=O)NC2Cc3ccccc3C2)c(O)c1=O [Compound 8g]
The Ki of the first is 24-fold lower: 70 ± 20 nM for the first, 1700 ± 100 nM for the second. The first binds more tightly here.

O=C(NCCOc1ccccc1)c1nc([C@@H]2CCCN2C(=O)c2c(Cl)cncc2Cl)[nH]c(=O)c1O [Compound 8d] and O=C(NCC1Cc2ccccc2C1)c1nc([C@@H]2CCCN2C(=O)c2c(Cl)cncc2Cl)[nH]c(=O)c1O [Compound 8h] are within error of each other in Ki: 50 ± 20 nM for the first, 100 ± 30 nM for the second.

Compared with O=C(NCCc1ccccc1)c1nc([C@@H]2CCCN2C(=O)CCc2ccccc2Cl)[nH]c(=O)c1O [Compound 9a], O=C(NCCc1ccccc1)c1nc([C@@H]2CCCN2C(=O)CCc2ccccc2F)[nH]c(=O)c1O [Compound 9c] is 3.1-fold higher in Ki: 1200 ± 200 nM for the first, 3700 ± 800 nM for the second.

First: O=C(NCCOc1ccccc1)c1nc([C@@H]2CCCN2C(=O)CCc2ccccc2F)[nH]c(=O)c1O [Compound 9d]
Second: O=C(NCCOc1ccccc1)c1nc([C@@H]2CCCN2C(=O)CSc2ccccc2F)[nH]c(=O)c1O [Compound 9m]
The Ki of the first is 2.1-fold higher: 500 ± 100 nM for the first, 240 ± 30 nM for the second.

Going from O=C(NCCc1ccccc1)c1nc([C@@H]2CCCN2C(=O)COc2ccccc2F)[nH]c(=O)c1O [Compound 9g] to O=C(NCCc1ccncc1)c1nc([C@@H]2CCCN2C(=O)COc2ccccc2F)[nH]c(=O)c1O [Compound 10n], the Ki falls from 1300 ± 400 nM to 256 ± 7 nM (5.1-fold). The second binds more tightly here.

Compared with O=C(NCCc1ccccc1)c1nc([C@@H]2CCCN2C(=O)CSc2ccccc2Cl)[nH]c(=O)c1O [Compound 9i], O=C(NCCc1ccccc1)c1nc([C@@H]2CCCN2C(=O)CSc2ccccc2F)[nH]c(=O)c1O [Compound 9l] is 4.1-fold higher in Ki: 290 ± 40 nM for the first, 1200 ± 100 nM for the second. The first binds more tightly here.

First: O=C(NCCc1ccccc1)c1nc([C@@H]2CCCN2C(=O)C[S+]([O-])c2ccccc2Cl)[nH]c(=O)c1O (stereo partly shown) [Compound 9j]
Second: O=C(NCC[S+]([O-])c1ccccc1)c1nc([C@@H]2CCCN2C(=O)COc2ccccc2Cl)[nH]c(=O)c1O (stereo partly shown) [Compound 10c]
The Ki of the first is 2-fold higher: 400 ± 70 nM for the first, 200 ± 30 nM for the second.

Compared with O=C(NCCSc1ccccc1)c1nc([C@@H]2CCCN2C(=O)COc2ccccc2Cl)[nH]c(=O)c1O [Compound 10a], O=C(NCCS(=O)(=O)c1ccccc1)c1nc([C@@H]2CCCN2C(=O)COc2ccccc2Cl)[nH]c(=O)c1O [Compound 10d] is 12-fold lower in Ki: 560 ± 20 nM for the first, 46 ± 1 nM for the second. The second binds more tightly here.

First: COc1ccc(S(=O)(=O)CCNC(=O)c2nc([C@@H]3CCCN3C(=O)COc3ccccc3Cl)[nH]c(=O)c2O)cc1 [Compound 10f]
Second: O=C(NC1Cc2ccccc2C1)c1nc([C@@H]2CCCN2C(=O)COc2ccccc2Cl)[nH]c(=O)c1O [Compound 10h]
The Ki of the first is 12-fold lower: 38 ± 9 nM for the first, 470 ± 70 nM for the second. The first binds more tightly here.

Compound O=C(NCc1cc2ccccc2o1)c1nc([C@@H]2CCCN2C(=O)CSc2ccccc2Cl)[nH]c(=O)c1O [Compound 10l] has a Ki of 1000 ± 200 nM.

Same assay, conditions: WT FP Ki

O=C(NCCOc1ccccc1)c1nc([C@@H]2CCCN2C(=O)COc2ccccc2Cl)[nH]c(=O)c1O [Compound 9f] and O=C(NCCc1ccccn1)c1nc([C@@H]2CCCN2C(=O)COc2ccccc2F)[nH]c(=O)c1O [Compound 10m] are within error of each other in Ki: 500 ± 200 nM for the first, 400 ± 200 nM for the second.

Same assay, conditions: read-out: WT FP Ki

O=C(O)C(=O)CC(=O)c1ccccc1 [DPBA, reference compound] was tested, and the Ki was 3700 ± 500 nM.

Each compound was assayed on influenza virus A/Puerto Rico/8/34 (H1N1) (assay: microbe, parasite or virus in culture). Conditions: H1N1, MDCK, read-out: plaque IC50.
Format: cell-based

O=C(NCCOc1ccccc1)c1nc([C@@H]2CCCN2C(=O)CCc2ccccc2Cl)[nH]c(=O)c1O [Compound 9b] and O=C(NCCOc1ccccc1)c1nc([C@@H]2CCCN2C(=O)CSc2ccccc2Cl)[nH]c(=O)c1O [Compound 9k] are within 1.5-fold of each other in IC50: 6600 nM for the first, 7200 nM for the second.

For COc1ccc(S(=O)(=O)CCNC(=O)c2nc([C@@H]3CCCN3C(=O)CSc3ccccc3Cl)[nH]c(=O)c2O)cc1 [Compound 10g], the IC50 was 9100 nM.
